Reference: PMC5877410 (Journal of medicinal chemistry, 2017)
Where “and” joins values, the source holds several entries; their conditions need not be identical. Equal values may be shown once. Read-outs that look alike come from different tables or passages of the source.

Columns and labels:
[1] = system: NAP1 C. difficile spores; assay: Optical density; format: cell-based, Clostridium difficile
[2] = system: NAP1 spores; assay: Phase-contrast microscope spore count assay; format: cell-based, Clostridium difficile
[3] = system: ATCC strain 630; details: murine infection model, strain ATCC 630; cited from earlier work
[4] = target: C. difficile spore germination; format: cell-based, Clostridium difficile; details: inhibitor evaluated at 0.2 mM, varying TCA; average of three experiments ± SEM
[5] = system: Caco-2 cell monolayer
[6] = system: Caco-2 cell monolayer; assay: Caco-2 cell monolayer bidirectional permeability assay; details: 10 μM
[7] = system: Caco-2 monolayers; details: cited from earlier work
[8] = 10 μM compound, 2000 μM TCA, after 20 min, mean ± SD, N = 3

Q: With “sodium 5-((R)-3-((3R,5S,7R,8R,9S,10S,13R,14S,17R)-3,7-dihydroxy-10,13-dimethylhexadecahydro-1H-cyclopenta[a]phenanthren-17-yl)butyl)tetrazol-1-ide [35a]” as the compound, how does the “Concentration Required for Complete Inhibition” value [1] read?
A: 10 µM

Q: And the “Percent Spore Germination Relative to control” value [2]?
A: 12% and 12 ± 6%

Q: What about the “Percent Spore Germination t0” value [2] of the same compound?
A: 15 ± 6%

Q: And the “Percent Spore Germination t20” value [2]?
A: 22 ± 6%

Q: Which “Percent Spore Germination t20” value [2, 8] does the source give for `CO[C@@H]1CC[C@@]2(C)[C@@H](C1)C[C@H](OS(=O)(=O)[O-])[C@@H]1[C@@H]2CC[C@]2(C)[C@@H]([C@H](C)CCC(=O)N3CCCC3)CC[C@@H]12.[Na+]` [21b, Sodium (3R,5S,7S,8R,9S,10S,13R,14S,17R)-3-Methoxy-10,13-dimethyl-17-((R)-5-oxo-5-(pyrrolidin-1-yl)pentan-2-yl)-hexadecahydro-1H-cyclopenta[a]phenanthren-7-yl Sulfate] here?
A: 30 ± 6%

Q: What about the “Percent Spore Germination t0” value ([2]; 10 μM compound, 2000 μM TCA, time 0, mean ± SD, N = 3) of the same compound?
A: 18 ± 2%

Q: And the “Inhibition of spore germination at 50 μM” value ([2]; 50 μM compound, 2000 μM TCA (Table S1))?
A: complete inhibition of spore germination

Q: With `C[C@H](CCC(=O)Nc1cccc(S(=O)(=O)O)c1)[C@H]1CC[C@H]2[C@@H]3[C@H](O)C[C@@H]4C[C@H](O)CC[C@]4(C)[C@H]3C[C@H](O)[C@]12C` [compound 3, reference compound] as the compound, how does the “Effect on CDI symptoms” value [3] read?
A: eradicated CDI symptoms

Q: And the “Percent Spore Germination t20” value [2, 8]?
A: 74 ± 2%

Q: Which results are given for “sodium 5-((R)-3-((3R,5R,7R,8R,9S,10S,13R,14S,17R)-7-hydroxy-3-methoxy-10,13-dimethyl-hexadecahydro-1H-cyclopenta[a]phenanthren-17-yl)butyl)-tetrazol-1-ide [37a]”?
A: Ki [4]: 17.9 ± 4.6 µM; Concentration Required for Complete Inhibition [1]: 5 µM; mean permeability A–B [5]: 10.7 10^−6 cm/s; mean permeability B–A [5]: 1.9 10^−6 cm/s; fold greater permeability in the A–B direction than C7-sulfated analogue 38a [6]: over 25 times; Percent Spore Germination t0 [2]: 20% and 16 ± 4%; Percent Spore Germination t20 [2]: 25%

Q: With “sodium 5-((R)-3-((3R,5S,7R,8R,9S,10S,13R,14S,17R)-3-methoxy-10,13-dimethyl-7-(sulfonatooxy)hexadecahydro-1H-cyclopenta[a]phenanthren-17-yl)-butyl)tetrazol-1-ide [38a]” as the compound, how does the “mean permeability A–B” value [5] read?
A: 0.4 10^−6 cm/s

Q: And the “mean permeability B–A” value [5]?
A: 0.4 10^−6 cm/s

Q: What about the “Percent Spore Germination t0” value [2] of the same compound?
A: 20 ± 11%

Q: And the “Percent Spore Germination t20” value [2]?
A: 48 ± 11%

Q: With `COC(=O)CC[C@@H](C)[C@H]1CC[C@H]2[C@@H]3[C@H](O)C[C@@H]4C[C@H](O)CC[C@]4(C)[C@H]3CC[C@]12C` [2a, methyl (R)-4-((3R,5S,7R,8R,9S,10S,13R,14S,17R)-3,7-dihydroxy-10,13-dimethylhexadecahydro-1H-cyclopenta[a]phenanthren-17-yl)pentanoate, reference compound] as the compound, how does the “Percent Spore Germination t20” value [2, 8] read?
A: 71 ± 1%

Q: For `CO[C@@H]1CC[C@@]2(C)[C@@H](C1)C[C@H](OC)[C@@H]1[C@@H]2CC[C@]2(C)[C@@H]([C@H](C)CCC(=O)O)CC[C@@H]12` [6b, (R)-4-((3R,5S,7S,8R,9S,10S,13R,14S,17R)-3,7-Dimethoxy-10,13-dimethylhexadecahydro-1H-cyclopenta[a]-phenanthren-17-yl)pentanoic Acid], which “Percent Spore Germination t20” value [2, 8] is on record?
A: 71 ± 2%

Q: With `C[C@H](CCC(=O)NCCS(=O)(=O)O)[C@H]1CC[C@H]2[C@@H]3[C@H](O)C[C@@H]4C[C@H](O)CC[C@]4(C)[C@H]3C[C@H](O)[C@]12C` [TCA, taurocholic acid] as the compound, how does the transport ratio [7] read?
A: greater than 10
